# According to PubChem BioAssay AID1919015 (Molecular Pharmacology Branch, DTP, NCI, 2023):
# System: OVCAR-5 complex spheroids with HUVEC/MSC, viability, % test/control
# Assay: Anticancer human tumor OVCAR-5 cell line growth inhibition [AhR];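 also: spheroids exposed to compounds for 7 days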;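 as to viability, T/C: 100% = DMSO vehicle control wells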
# Details: for IC50: curve of first compound; for viability, T/C: stronger effect = lower value
# Excerpt: Multicellular complex tumor spheroid response to aryl hydrocarbon receptor antagonists in combination with a variety of drugs and investigational agents in selected tumor cell lines
# The current study was undertaken to assess response to aryl hydrocarbon receptor antagonists in combination with standard-of-care drugs and investigational agents in solid tumor complex spheroid models. Complex spheroids include a stromal component modeled by human endothelial cells (HUVEC) and fibroblasts modeled by human mesenchymal stem cells (MSCs). The concentration ranges selected for each drug and investigational agent were based upon clinically achievable concentrations if the clinical Cmax of the agent was known.
# Compounds. The drugs and investigational agents: BAY 2416964 (NSC825713), GNF351 (NSC835774), CH-223191 (NSC835775), CPI-455 (NSC825282), aza-TdCyd (NSC777586), decitabine (NSC127716), belinostat (NSC758774), entinostat (NSC756642), pevonedistat (NSC761192), tazemetostat (NSC777109), talazoparib (NSC765396), olaparib (NSC753686), selinexor (NSC780203), nedisertib (M3814, NSC802822), bortezomib (NSC756655), venetoclax (NSC766270), doxorubicin (NSC123127), elimusertib (BAY189344, NSC800525), ceralasertib (AZD6738, NSC777638), TAK-243 (NSC785004), alisertib (NSC759677), etoposide (NSC141540), topotecan (NSC609699), eribulin (NSC707389), gemcitabine (NSC613327), carboplatin (NSC241240), cisplatin (NSC119875), and SN-38 (NSC673596) were obtained from the National Cancer Institute (NCI) Developmental Therapeutics Program Chemical Repository (32). The FDA-approved anticancer drug set is available from the Developmental Therapeutics Program at https://dtp.cancer.gov/organization/dscb/obtaining/available plates.htm. […] The stock solutions were prepared in dimethyl sulfoxide (DMSO, Sigma-Aldrich, St. Louis, MO, cat. D2650), except for the platinum compounds which were prepared in saline (Quality Biological, Gaithersburg, MD, cat. 114-055-101), at 800-fold the tested concentration and stored at -70 degrees C prior to their use. All drugs and investigational agents were tested over a range starting from a high concentration at or near the clinical Cmax and decreasing in half-log increments. If the clinical Cmax for an agent had not been determined, the highest concentration tested was 10 microM (Table 1).
# Cell Culture. All cells were maintained in an incubator at 37 degrees C and 5% CO2 with 95% humidity. The PDC lines were cultured according to standard operating procedures established by the NCI PDMR (https://pdmr.cancer.gov). Briefly, all PDCs were thawed and cultured in Matrigel-coated flasks prepared with a working solution of 1X Ham's F-12 nutrient mix, without supplementation (Invitrogen, Waltham, MA, cat. 11765054), 100 U/mL penicillin-streptomycin (Invitrogen, cat. 15140122), and 2.5% Matrigel (Corning Inc., Corning, NY, cat. 354248) for the first three passages. All PDCs were cultured in complete DMEM/F-12 media containing advanced DMEM/F-12 (Invitrogen, cat. 12634028), 4.9% defined fetal bovine serum, heat inactivated (HyClone Laboratories Inc., Logan, UT, cat. SH30070.03HI), 389 ng/mL hydrocortisone (Sigma-Aldrich, cat. H4001), 9.7 ng/mL human EGF recombinant protein (Invitrogen, cat. PHG0313), 23.4 microg/mL adenine (Sigma-Aldrich, cat. A2786), 97.3 U/mL penicillin-streptomycin (Invitrogen, cat. 15140122), 1.9 mM L-glutamine (Invitrogen, cat. 25030081), and 9.7 microM Y-27632 dihydrochloride (Tocris Bioscience, Bristol, United Kingdom, cat. 1254). The PDCs were cultured in complete DMEM/F12 media without 10 microM Y-27632 dihydrochloride for at least two passages prior to the screen. The established cell lines NCI-H1341 and […] were cultured in DMEM/F-12, HEPES (Invitrogen, cat. 11330032), 5% defined fetal bovine serum (HyClone Laboratories Inc., cat. SH30070.03), ITS premix universal culture supplement [insulin (5 microg/mL), transferrin (5 microg/mL), and selenious acid (5 ng/mL)] […]
# [1] = second compound 0.1 µM, first compound 0.00316 µM
# [2] = second compound 0.1 µM, first compound 0.01 µM
# [3] = second compound 0.1 µM, first compound 0.0316 µM
# [4] = second compound 0.1 µM, first compound 0.1 µM
# [5] = second compound 0.316 µM, first compound 0.00316 µM
# [6] = second compound 0.316 µM, first compound 0.01 µM
# [7] = second compound 0.316 µM, first compound 0.0316 µM
# [8] = second compound 0.316 µM, first compound 0.1 µM
# [9] = second compound 1 µM, first compound 0.00316 µM
# [10] = second compound 1 µM, first compound 0.01 µM
# [11] = second compound 1 µM, first compound 0.0316 µM
# [12] = second compound 1 µM, first compound 0.1 µM
# [13] = second compound 3.16 µM, first compound 0.00316 µM
# [14] = second compound 3.16 µM, first compound 0.01 µM
# [15] = second compound 3.16 µM, first compound 0.0316 µM
# [16] = second compound 3.16 µM, first compound 0.1 µM
# [17] = second compound 10 µM, first compound 0.00316 µM
# [18] = second compound 10 µM, first compound 0.01 µM
# [19] = second compound 10 µM, first compound 0.0316 µM
# [20] = second compound 10 µM, first compound 0.1 µM
Compound,IC50 (second compound 0.1 µM) [µM],IC50 (second compound 0.316 µM) [µM],IC50 (second compound 1 µM) [µM],IC50 (second compound 3.16 µM) [µM],IC50 (second compound 10 µM) [µM],"viability, T/C [1] [%]","viability, T/C [2] [%]","viability, T/C [3] [%]","viability, T/C [4] [%]","viability, T/C [5] [%]","viability, T/C [6] [%]","viability, T/C [7] [%]","viability, T/C [8] [%]","viability, T/C [9] [%]","viability, T/C [10] [%]","viability, T/C [11] [%]","viability, T/C [12] [%]","viability, T/C [13] [%]","viability, T/C [14] [%]","viability, T/C [15] [%]",further results
Nc1ncn(C2CC(O)C(CO)O2)c(=O)n1 (stereo not given) + Cc1ccccc1N=Nc1ccc(NC(=O)c2ccnn2C)c(C)c1,> 1,> 1,> 1,> 1,> 1,99,98.3,88.3,76.4,104,104,94.3,79.6,108,105,98.2,81.4,105,109,100,"viability, T/C (second compound 0.1 µM, first compound 0.316 µM): 65%; viability, T/C (second compound 0.1 µM, first compound 1 µM): 64.5%; viability, T/C (second compound 0.316 µM, first compound 0.316 µM): 69.3%; viability, T/C (second compound 0.316 µM, first compound 1 µM): 59.2%; viability, T/C (second compound 1 µM, first compound 0.316 µM): 68.9%; viability, T/C (second compound 1 µM, first compound 1 µM): 62%; viability, T/C [16]: 85.9%; viability, T/C (second compound 3.16 µM, first compound 0.316 µM): 72%; viability, T/C (second compound 3.16 µM, first compound 1 µM): 62.2%; viability, T/C [17]: 104%; viability, T/C [18]: 109%; viability, T/C [19]: 100%; viability, T/C [20]: 82.5%; viability, T/C (second compound 10 µM, first compound 0.316 µM): 68.1%; viability, T/C (second compound 10 µM, first compound 1 µM): 61.4%"
CC[C@@]1(O)C(=O)OCc2c1cc1n(c2=O)Cc2cc3c(CN(C)C)c(O)ccc3nc2-1 + Cc1ccccc1N=Nc1ccc(NC(=O)c2ccnn2C)c(C)c1,0.0229,0.0243,0.0253,0.0275,0.0282,94,79.2,34.7,42.4,96,84.6,36.5,42.7,104,89.3,38.7,42.4,108,92,41,"viability, T/C (second compound 0.1 µM, first compound 0.000316 µM): 103%; viability, T/C (second compound 0.1 µM, first compound 0.001 µM): 102%; viability, T/C (second compound 0.316 µM, first compound 0.000316 µM): 105%; viability, T/C (second compound 0.316 µM, first compound 0.001 µM): 103%; viability, T/C (second compound 1 µM, first compound 0.000316 µM): 112%; viability, T/C (second compound 1 µM, first compound 0.001 µM): 108%; viability, T/C (second compound 3.16 µM, first compound 0.000316 µM): 113%; viability, T/C (second compound 3.16 µM, first compound 0.001 µM): 110%; viability, T/C [16]: 47.4%; viability, T/C (second compound 10 µM, first compound 0.000316 µM): 100%; viability, T/C (second compound 10 µM, first compound 0.001 µM): 104%; viability, T/C [17]: 101%; viability, T/C [18]: 89%; viability, T/C [19]: 40.9%; viability, T/C [20]: 50.4%"
